Activity calls are given as the source filed them.
These molecules were tested against T1, Glycine--tRNA ligase (Homo sapiens, UniProt P41250).
T1 sequence (P41250 whole entry): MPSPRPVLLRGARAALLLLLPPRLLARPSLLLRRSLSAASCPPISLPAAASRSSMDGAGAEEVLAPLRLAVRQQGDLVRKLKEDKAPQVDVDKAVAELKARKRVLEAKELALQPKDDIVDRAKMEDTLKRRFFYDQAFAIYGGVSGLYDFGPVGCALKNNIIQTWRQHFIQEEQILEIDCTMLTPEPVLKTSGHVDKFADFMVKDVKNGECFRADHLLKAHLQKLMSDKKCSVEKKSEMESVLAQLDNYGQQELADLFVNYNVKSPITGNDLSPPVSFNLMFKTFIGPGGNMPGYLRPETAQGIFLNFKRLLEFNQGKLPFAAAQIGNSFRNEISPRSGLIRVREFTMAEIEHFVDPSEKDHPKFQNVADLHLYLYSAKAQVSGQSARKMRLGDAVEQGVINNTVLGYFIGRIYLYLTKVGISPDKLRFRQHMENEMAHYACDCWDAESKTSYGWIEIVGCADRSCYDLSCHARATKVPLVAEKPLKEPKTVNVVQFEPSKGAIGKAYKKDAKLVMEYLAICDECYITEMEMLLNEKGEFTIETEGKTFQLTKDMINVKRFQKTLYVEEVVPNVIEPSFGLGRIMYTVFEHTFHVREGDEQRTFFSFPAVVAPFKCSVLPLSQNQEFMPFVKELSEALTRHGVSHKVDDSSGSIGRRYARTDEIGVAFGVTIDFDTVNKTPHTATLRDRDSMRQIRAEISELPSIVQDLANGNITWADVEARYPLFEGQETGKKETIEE
O=c1sn(-c2cccc3ccccc23)c(=O)n1Cc1ccccc1 [TIDEGLUSIB] was tested, and the Kd was > 30 µM (inactive). COc1cc2nccc(Oc3ccc(NC(=O)Nc4cc(C)on4)c(Cl)c3)c2cc1OC [TIVOZANIB] was tested, and the Kd was > 30 µM (inactive). In the case of CC(=O)Nc1cccc(-n2c(=O)n(C3CC3)c(=O)c3c(Nc4ccc(I)cc4F)n(C)c(=O)c(C)c32)c1 [TRAMETINIB], the Kd is reported as > 30 µM (inactive). With CN1N=C(N)c2cn([C@@H]3O[C@H](COP(=O)(O)O)[C@@H](O)[C@H]3O)c3ncnc1c23 [TRICIRIBINE PHOSPHATE] the Kd was > 30 µM (inactive). For CC(C)Nc1cc(-c2c[nH]c(C(=O)N[C@H](CO)c3cccc(Cl)c3)c2)c(Cl)cn1 [ULIXERTINIB], the Kd was > 30 µM (inactive). CCCS(=O)(=O)Nc1ccc(F)c(C(=O)c2c[nH]c3ncc(-c4ccc(Cl)cc4)cc23)c1F [VEMURAFENIB] was tested, and the Kd was > 30 µM (inactive). In the case of CC[C@@H]1C(=O)N(C)c2cnc(Nc3ccc(C(=O)N[C@H]4CC[C@H](N5CCN(CC6CC6)CC5)CC4)cc3OC)nc2N1C(C)C [VOLASERTIB], the Kd is reported as > 30 µM (inactive). In the case of CCn1c(=O)c(-c2cc[nH]n2)cc2c(C)nc(N)nc21 [VOXTALISIB], the Kd is reported as > 30 µM (inactive). O=C(Nc1ccc(-c2ccnc(Nc3ccc(N4CCOCC4)cc3)n2)cc1)C1CCCN1 (stereo not given) [XL-019] was tested, and the Kd was > 30 µM (inactive).

These molecules were tested against Citron Rho-interacting kinase (Homo sapiens, UniProt O14578).
Chain of Citron Rho-interacting kinase (O14578 whole entry): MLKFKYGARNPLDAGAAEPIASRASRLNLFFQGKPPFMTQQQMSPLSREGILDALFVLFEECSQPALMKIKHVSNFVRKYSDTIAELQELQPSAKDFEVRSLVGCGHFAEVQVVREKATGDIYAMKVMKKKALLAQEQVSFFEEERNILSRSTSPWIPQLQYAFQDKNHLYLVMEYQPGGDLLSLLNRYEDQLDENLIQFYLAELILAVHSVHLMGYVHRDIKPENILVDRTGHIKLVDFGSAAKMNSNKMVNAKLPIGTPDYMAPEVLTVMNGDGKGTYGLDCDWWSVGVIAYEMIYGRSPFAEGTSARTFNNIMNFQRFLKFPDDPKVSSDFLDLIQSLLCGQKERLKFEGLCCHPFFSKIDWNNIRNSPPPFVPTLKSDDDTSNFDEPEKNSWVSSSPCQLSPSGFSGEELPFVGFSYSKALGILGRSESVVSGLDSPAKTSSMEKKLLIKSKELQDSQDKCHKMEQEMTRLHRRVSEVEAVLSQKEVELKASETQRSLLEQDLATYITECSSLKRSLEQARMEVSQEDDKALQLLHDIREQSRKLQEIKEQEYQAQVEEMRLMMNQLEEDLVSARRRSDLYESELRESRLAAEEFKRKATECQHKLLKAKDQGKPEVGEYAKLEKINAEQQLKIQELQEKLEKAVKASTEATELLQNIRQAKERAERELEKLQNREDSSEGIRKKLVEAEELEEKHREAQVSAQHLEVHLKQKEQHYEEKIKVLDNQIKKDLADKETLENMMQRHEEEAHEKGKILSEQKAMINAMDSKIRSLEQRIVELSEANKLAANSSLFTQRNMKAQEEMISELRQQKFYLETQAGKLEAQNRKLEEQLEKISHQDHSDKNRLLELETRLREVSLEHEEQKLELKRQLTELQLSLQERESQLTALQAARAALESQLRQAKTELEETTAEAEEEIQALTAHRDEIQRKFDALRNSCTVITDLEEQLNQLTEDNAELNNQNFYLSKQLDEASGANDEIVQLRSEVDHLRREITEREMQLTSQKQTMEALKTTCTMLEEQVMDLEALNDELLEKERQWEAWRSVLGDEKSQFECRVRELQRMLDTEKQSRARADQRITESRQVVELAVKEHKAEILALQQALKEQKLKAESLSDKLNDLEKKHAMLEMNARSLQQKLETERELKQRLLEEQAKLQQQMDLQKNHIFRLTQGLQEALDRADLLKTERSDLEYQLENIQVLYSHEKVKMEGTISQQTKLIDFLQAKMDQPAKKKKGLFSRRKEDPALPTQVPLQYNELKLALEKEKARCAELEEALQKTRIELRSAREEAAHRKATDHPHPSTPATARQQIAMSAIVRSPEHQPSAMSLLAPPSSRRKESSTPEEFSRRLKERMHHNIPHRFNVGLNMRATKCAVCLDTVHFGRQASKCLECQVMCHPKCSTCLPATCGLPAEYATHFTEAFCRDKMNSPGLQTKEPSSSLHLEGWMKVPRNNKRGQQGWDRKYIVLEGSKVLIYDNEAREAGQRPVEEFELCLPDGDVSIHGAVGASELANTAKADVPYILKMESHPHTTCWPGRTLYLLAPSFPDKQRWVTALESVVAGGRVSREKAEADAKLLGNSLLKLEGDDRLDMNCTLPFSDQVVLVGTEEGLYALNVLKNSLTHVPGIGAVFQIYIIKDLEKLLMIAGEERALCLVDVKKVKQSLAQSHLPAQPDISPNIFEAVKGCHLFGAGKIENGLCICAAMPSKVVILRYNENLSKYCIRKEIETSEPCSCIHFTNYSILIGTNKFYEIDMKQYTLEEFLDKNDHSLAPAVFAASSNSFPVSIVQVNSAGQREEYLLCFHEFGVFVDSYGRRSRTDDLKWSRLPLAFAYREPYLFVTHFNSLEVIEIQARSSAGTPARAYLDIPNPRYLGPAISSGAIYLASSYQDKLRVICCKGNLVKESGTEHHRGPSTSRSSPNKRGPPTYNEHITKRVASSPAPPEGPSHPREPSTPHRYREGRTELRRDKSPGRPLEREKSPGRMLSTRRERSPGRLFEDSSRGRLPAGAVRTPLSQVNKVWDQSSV
O=c1sn(-c2cccc3ccccc23)c(=O)n1Cc1ccccc1 [TIDEGLUSIB] was tested, and the Kd was > 30 µM (inactive). For COc1cc2nccc(Oc3ccc(NC(=O)Nc4cc(C)on4)c(Cl)c3)c2cc1OC [TIVOZANIB], the Kd was > 30 µM (inactive). In the case of CC(=O)Nc1cccc(-n2c(=O)n(C3CC3)c(=O)c3c(Nc4ccc(I)cc4F)n(C)c(=O)c(C)c32)c1 [TRAMETINIB], the Kd is reported as > 30 µM (inactive). With CN1N=C(N)c2cn([C@@H]3O[C@H](COP(=O)(O)O)[C@@H](O)[C@H]3O)c3ncnc1c23 [TRICIRIBINE PHOSPHATE] the Kd was > 30 µM (inactive). CC(C)Nc1cc(-c2c[nH]c(C(=O)N[C@H](CO)c3cccc(Cl)c3)c2)c(Cl)cn1 [ULIXERTINIB] was tested, and the Kd was > 30 µM (inactive). In the case of CCCS(=O)(=O)Nc1ccc(F)c(C(=O)c2c[nH]c3ncc(-c4ccc(Cl)cc4)cc23)c1F [VEMURAFENIB], the Kd is reported as > 30 µM (inactive). CC[C@@H]1C(=O)N(C)c2cnc(Nc3ccc(C(=O)N[C@H]4CC[C@H](N5CCN(CC6CC6)CC5)CC4)cc3OC)nc2N1C(C)C [VOLASERTIB] was tested, and the Kd was > 30 µM (inactive). For CCn1c(=O)c(-c2cc[nH]n2)cc2c(C)nc(N)nc21 [VOXTALISIB], the Kd was > 30 µM (inactive). O=C(Nc1ccc(-c2ccnc(Nc3ccc(N4CCOCC4)cc3)n2)cc1)C1CCCN1 (stereo not given) [XL-019] was tested, and the Kd was 3.62 µM (active).

The molecules below were run against T2, Beta-adrenergic receptor kinase 1 (Homo sapiens, UniProt P25098).
T2 sequence (P25098 whole entry): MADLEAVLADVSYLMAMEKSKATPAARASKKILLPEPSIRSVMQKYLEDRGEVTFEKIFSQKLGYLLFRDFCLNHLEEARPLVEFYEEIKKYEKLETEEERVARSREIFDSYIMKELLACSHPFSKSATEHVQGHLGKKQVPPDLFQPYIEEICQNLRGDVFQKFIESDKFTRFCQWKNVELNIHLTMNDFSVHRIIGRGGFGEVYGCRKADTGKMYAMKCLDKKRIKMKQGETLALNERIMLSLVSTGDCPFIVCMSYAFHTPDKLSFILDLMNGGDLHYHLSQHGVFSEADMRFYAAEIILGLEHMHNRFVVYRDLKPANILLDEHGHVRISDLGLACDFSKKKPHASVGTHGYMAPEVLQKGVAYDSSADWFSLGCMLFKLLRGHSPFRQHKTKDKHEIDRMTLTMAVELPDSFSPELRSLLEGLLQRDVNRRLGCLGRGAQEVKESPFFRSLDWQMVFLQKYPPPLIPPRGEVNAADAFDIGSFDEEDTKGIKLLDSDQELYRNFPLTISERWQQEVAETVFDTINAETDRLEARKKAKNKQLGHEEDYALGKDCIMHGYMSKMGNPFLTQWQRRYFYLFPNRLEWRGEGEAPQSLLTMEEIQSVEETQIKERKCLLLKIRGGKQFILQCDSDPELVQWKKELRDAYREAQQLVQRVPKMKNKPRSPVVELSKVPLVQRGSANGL
For O=c1sn(-c2cccc3ccccc23)c(=O)n1Cc1ccccc1 [TIDEGLUSIB], the Kd was > 30 µM (inactive). With COc1cc2nccc(Oc3ccc(NC(=O)Nc4cc(C)on4)c(Cl)c3)c2cc1OC [TIVOZANIB] the Kd was > 30 µM (inactive). With CC(=O)Nc1cccc(-n2c(=O)n(C3CC3)c(=O)c3c(Nc4ccc(I)cc4F)n(C)c(=O)c(C)c32)c1 [TRAMETINIB] the Kd was > 30 µM (inactive). With CN1N=C(N)c2cn([C@@H]3O[C@H](COP(=O)(O)O)[C@@H](O)[C@H]3O)c3ncnc1c23 [TRICIRIBINE PHOSPHATE] the Kd was > 30 µM (inactive). With CC(C)Nc1cc(-c2c[nH]c(C(=O)N[C@H](CO)c3cccc(Cl)c3)c2)c(Cl)cn1 [ULIXERTINIB] the Kd was > 30 µM (inactive). With CCCS(=O)(=O)Nc1ccc(F)c(C(=O)c2c[nH]c3ncc(-c4ccc(Cl)cc4)cc23)c1F [VEMURAFENIB] the Kd was > 30 µM (inactive). CC[C@@H]1C(=O)N(C)c2cnc(Nc3ccc(C(=O)N[C@H]4CC[C@H](N5CCN(CC6CC6)CC5)CC4)cc3OC)nc2N1C(C)C [VOLASERTIB] was tested, and the Kd was > 30 µM (inactive). With CCn1c(=O)c(-c2cc[nH]n2)cc2c(C)nc(N)nc21 [VOXTALISIB] the Kd was > 30 µM (inactive). For O=C(Nc1ccc(-c2ccnc(Nc3ccc(N4CCOCC4)cc3)n2)cc1)C1CCCN1 (stereo not given) [XL-019], the Kd was > 30 µM (inactive).

What follows are molecules tested against T3, Cytochrome c1, heme protein, mitochondrial (Homo sapiens, UniProt P08574).
T3 sequence (P08574 whole entry): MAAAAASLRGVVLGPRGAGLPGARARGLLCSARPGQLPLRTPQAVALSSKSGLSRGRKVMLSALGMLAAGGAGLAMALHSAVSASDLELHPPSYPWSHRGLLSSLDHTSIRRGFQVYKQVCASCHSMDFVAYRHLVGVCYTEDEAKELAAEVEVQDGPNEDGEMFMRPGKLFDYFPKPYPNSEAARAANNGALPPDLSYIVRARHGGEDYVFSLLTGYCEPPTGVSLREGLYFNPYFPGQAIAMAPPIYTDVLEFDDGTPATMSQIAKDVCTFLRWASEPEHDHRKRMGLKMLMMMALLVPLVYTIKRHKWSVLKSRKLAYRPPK
For O=c1sn(-c2cccc3ccccc23)c(=O)n1Cc1ccccc1 [TIDEGLUSIB], the Kd was > 30 µM (inactive). In the case of COc1cc2nccc(Oc3ccc(NC(=O)Nc4cc(C)on4)c(Cl)c3)c2cc1OC [TIVOZANIB], the Kd is reported as > 30 µM (inactive). With CC(=O)Nc1cccc(-n2c(=O)n(C3CC3)c(=O)c3c(Nc4ccc(I)cc4F)n(C)c(=O)c(C)c32)c1 [TRAMETINIB] the Kd was > 30 µM (inactive). CN1N=C(N)c2cn([C@@H]3O[C@H](COP(=O)(O)O)[C@@H](O)[C@H]3O)c3ncnc1c23 [TRICIRIBINE PHOSPHATE] was tested, and the Kd was > 30 µM (inactive). With CC(C)Nc1cc(-c2c[nH]c(C(=O)N[C@H](CO)c3cccc(Cl)c3)c2)c(Cl)cn1 [ULIXERTINIB] the Kd was > 30 µM (inactive). CCCS(=O)(=O)Nc1ccc(F)c(C(=O)c2c[nH]c3ncc(-c4ccc(Cl)cc4)cc23)c1F [VEMURAFENIB] was tested, and the Kd was > 30 µM (inactive). For CC[C@@H]1C(=O)N(C)c2cnc(Nc3ccc(C(=O)N[C@H]4CC[C@H](N5CCN(CC6CC6)CC5)CC4)cc3OC)nc2N1C(C)C [VOLASERTIB], the Kd was > 30 µM (inactive). In the case of CCn1c(=O)c(-c2cc[nH]n2)cc2c(C)nc(N)nc21 [VOXTALISIB], the Kd is reported as > 30 µM (inactive). For O=C(Nc1ccc(-c2ccnc(Nc3ccc(N4CCOCC4)cc3)n2)cc1)C1CCCN1 (stereo not given) [XL-019], the Kd was > 30 µM (inactive).

These molecules were tested against T4, ATP-dependent RNA helicase DDX42 (Homo sapiens, UniProt Q86XP3).
T4 sequence (Q86XP3 whole entry): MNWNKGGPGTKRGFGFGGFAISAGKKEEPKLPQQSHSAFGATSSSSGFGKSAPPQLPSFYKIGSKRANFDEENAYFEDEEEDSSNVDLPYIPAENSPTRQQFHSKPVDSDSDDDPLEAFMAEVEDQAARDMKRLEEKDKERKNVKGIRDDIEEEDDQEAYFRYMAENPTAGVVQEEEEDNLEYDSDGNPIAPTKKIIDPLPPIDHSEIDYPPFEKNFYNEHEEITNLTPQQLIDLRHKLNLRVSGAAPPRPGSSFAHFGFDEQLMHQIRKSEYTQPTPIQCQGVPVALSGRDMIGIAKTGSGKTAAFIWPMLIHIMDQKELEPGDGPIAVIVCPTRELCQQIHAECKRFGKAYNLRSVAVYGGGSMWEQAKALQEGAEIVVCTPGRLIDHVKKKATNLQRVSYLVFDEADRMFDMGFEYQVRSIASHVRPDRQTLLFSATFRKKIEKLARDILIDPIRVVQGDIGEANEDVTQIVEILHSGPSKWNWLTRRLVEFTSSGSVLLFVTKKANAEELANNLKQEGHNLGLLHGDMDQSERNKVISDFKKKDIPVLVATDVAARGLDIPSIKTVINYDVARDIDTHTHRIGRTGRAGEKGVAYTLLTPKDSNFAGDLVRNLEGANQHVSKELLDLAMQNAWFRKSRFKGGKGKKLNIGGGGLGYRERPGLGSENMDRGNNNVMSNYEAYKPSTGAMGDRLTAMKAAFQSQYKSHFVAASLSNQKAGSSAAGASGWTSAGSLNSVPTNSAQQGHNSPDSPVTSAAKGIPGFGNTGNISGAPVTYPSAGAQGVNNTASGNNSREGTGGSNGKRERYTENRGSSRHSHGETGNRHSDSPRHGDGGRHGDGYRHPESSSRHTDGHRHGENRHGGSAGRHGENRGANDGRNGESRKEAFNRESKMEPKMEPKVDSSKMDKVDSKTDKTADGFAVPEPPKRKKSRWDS
In the case of O=c1sn(-c2cccc3ccccc23)c(=O)n1Cc1ccccc1 [TIDEGLUSIB], the Kd is reported as > 30 µM (inactive). In the case of COc1cc2nccc(Oc3ccc(NC(=O)Nc4cc(C)on4)c(Cl)c3)c2cc1OC [TIVOZANIB], the Kd is reported as > 30 µM (inactive). CC(=O)Nc1cccc(-n2c(=O)n(C3CC3)c(=O)c3c(Nc4ccc(I)cc4F)n(C)c(=O)c(C)c32)c1 [TRAMETINIB] was tested, and the Kd was > 30 µM (inactive). With CN1N=C(N)c2cn([C@@H]3O[C@H](COP(=O)(O)O)[C@@H](O)[C@H]3O)c3ncnc1c23 [TRICIRIBINE PHOSPHATE] the Kd was > 30 µM (inactive). With CC(C)Nc1cc(-c2c[nH]c(C(=O)N[C@H](CO)c3cccc(Cl)c3)c2)c(Cl)cn1 [ULIXERTINIB] the Kd was > 30 µM (inactive). For CCCS(=O)(=O)Nc1ccc(F)c(C(=O)c2c[nH]c3ncc(-c4ccc(Cl)cc4)cc23)c1F [VEMURAFENIB], the Kd was > 30 µM (inactive). For CC[C@@H]1C(=O)N(C)c2cnc(Nc3ccc(C(=O)N[C@H]4CC[C@H](N5CCN(CC6CC6)CC5)CC4)cc3OC)nc2N1C(C)C [VOLASERTIB], the Kd was > 30 µM (inactive). CCn1c(=O)c(-c2cc[nH]n2)cc2c(C)nc(N)nc21 [VOXTALISIB] was tested, and the Kd was > 30 µM (inactive). For O=C(Nc1ccc(-c2ccnc(Nc3ccc(N4CCOCC4)cc3)n2)cc1)C1CCCN1 (stereo not given) [XL-019], the Kd was > 30 µM (inactive).

— ChEMBL document CHEMBL3991601, “The target landscape of clinical kinase drugs” (Science, 2017)
Note: in the data inactive means no Kd found up to 30 µM.
